Assay results reported in US8058286B2, “Method for therapy of diarrhea-predominant irritable bowel disorders” (Toray Industries, Inc., priority 2005, dated 2011).
Structures can show the parent of a compound that is named as a salt.

Test system: Rat Defecation Models Induced by Restraint Stress
Experiment: Rat defecation models induced by restraint stress (number of feces within 60 minutes)
Type: in vivo
Source text: The fact that the morphinan derivatives having the nitrogen-containing cyclic substituent, represented by Formula (I) and the pharmaceutically acceptable acid addition salts thereof are effective for functional bowel disorders may be confirmed by showing inhibitory action against transportation ability of large intestine, which ability has been increased by applying restraint stress. The inhibitory action against the increased transportation ability of large intestine may be confirmed by a reported method (Miyata K et. al., J. Pharmacol. Exp. Ther., 261, 297-303, 1992. or Kobayashi S et. al., Jpn. J. Pharmacol., 86, 281-8, 2001.), but the method is not restricted thereto.
A solvent or the Compound 1 was subcutaneously administered, and 15 minutes later, application of restraint stress was started. The number of feces within 60 minutes from the beginning of the application of the stress was counted and the effect was evaluated (one group consisted of 6 rats). The rats in a control group to which the restraint stress was not applied were merely moved to a new plastic cage.
In the group to which 5 w/v % xylitol solution containing 0.1 w/v % citric acid used as the solvent alone was administered, the rats to which the restraint stress was not applied defecated 1.0 feces on average within the 60 minutes, while the rats to which the restraint stress was applied defecated 6.5 feces on average, so that increase in the number of feces caused by the stress was observed.
Compounds 10, 11, 12 and 13 were evaluated in the same manner as in Example 1. In the group to which 5 w/v % xylitol solution containing 0.1 w/v % citric acid used as the solvent alone was administered, the rats to which the restraint stress was applied defecated 7.5 feces on average within the 60 minutes. The number of feces was decreased to 0.3 on average when 0.3 mg/kg of Compound 10 was administered, decreased to 4.2 on average when 1 mg/kg of Compound 11 was administered, decreased to 3.7 on average when 0.3 mg/kg of Compound 12 was administered, and decreased to 4.1 on average when 10 mg/kg of Compound 13 was administered.

[1] = 0.3 mg/kg subcutaneous 15 minutes before restraint stress, solvent group with stress 7.5

## O=C1c2cccc(F)c2CN1[C@@H]1CC[C@@]2(O)[C@H]3Cc4ccc(O)c5c4[C@@]2(CCN3CC2CC2)[C@H]1O5 [Compound 11, 2-(17-cyclopropylmethyl-4,5α-epoxy-3,14-dihydroxy-morphinan-6β-yl)-4-fluoro-2,3-dihydro-isoindole-1-one-methanesulfonic Acid Salt]
1 mg/kg subcutaneous 15 minutes before restraint stress, solvent group with stress 7.5
  number of feces on average within 60 minutes from the beginning of restraint stress: 4.2

## O=C1C2=C(CCCC2)C(=O)N1[C@@H]1CC[C@@]2(O)[C@H]3Cc4ccc(O)c5c4[C@@]2(CCN3CC2CC2)[C@H]1O5 [Compound 10, N-(17-cyclopropylmethyl-4,5α-epoxy-3,14-dihydroxy-morphinan-6β-yl)-3,4,5,6-tetrahydrophthalimide•tartaric Acid Salt]
[1]
  number of feces on average within 60 minutes from the beginning of restraint stress: 0.3

## O=C1c2ccccc2C(=O)N1[C@@H]1CC[C@@]2(O)[C@H]3Cc4ccc(O)c5c4[C@@]2(CCN3CC2CC2)[C@H]1O5 [Compound 1, N-(17-cyclopropylmethyl-4,5α-epoxy-3,14-dihydroxy-morphinan-6β-yl)-phthalimide]
0.15 mg/kg subcutaneous 15 minutes before restraint stress, solvent group with stress 6.5, without stress 1.0
  number of feces on average within 60 minutes from the beginning of restraint stress: 1.0
0.15 mg/kg subcutaneous, restraint stress, result in words
  activity to reduce the number of feces with respect to the solvent group: statistically significant activity to reduce the number of feces was observed

## O=C1c2ccccc2S(=O)(=O)N1[C@@H]1CC[C@@]2(O)[C@H]3Cc4ccc(O)c5c4[C@@]2(CCN3CC2CC2)[C@H]1O5 [Compound 12, N-(17-cyclopropylmethyl-4,5α-epoxy-3,14-dihydroxy-morphinan-6β-yl)-O-sulfonbenzimide•tartaric Acid Salt]
[1]
  number of feces on average within 60 minutes from the beginning of restraint stress: 3.7

## O=C1C=CC(=O)N1[C@@H]1CC[C@@]2(O)[C@H]3Cc4ccc(O)c5c4[C@@]2(CCN3CC2CC2)[C@H]1O5 [Compound 13, N-(17-cyclopropylmethyl-4,5α-epoxy-3,14-dihydroxy-morphinan-6β-yl)-maleimide•tartaric Acid Salt]
10 mg/kg subcutaneous 15 minutes before restraint stress, solvent group with stress 7.5
  number of feces on average within 60 minutes from the beginning of restraint stress: 4.1
